Experimental data from US6436948B1, “Method for the treatment of psoriasis and genital warts” (priority 1995, dated 2002).
pIC50: −log10 of the molar value.

Experiments:
Type in all cases: cell-based
[1] = test system: KB nasopharyngeal carcinoma cell line; experiment: In vitro cytotoxicity, methylene blue assay / cell count: KB; conditions: three generations, mean ± standard deviation of five experiments, read-out: ID50 (the source's name)
[2] = test system: DU-145 prostate carcinoma line; experiment: In vitro cytotoxicity, methylene blue assay / cell count: DU-145; conditions: three generations, mean ± standard deviation of five experiments, read-out: ID50 (the source's name)
[3] = test system: PC-3 prostate carcinoma line; experiment: In vitro cytotoxicity, methylene blue assay / cell count: PC-3; conditions: three generations, mean ± standard deviation of five experiments, read-out: ID50 (the source's name)
[4] = test system: HepG2 cells; experiment: In vitro cytotoxicity, methylene blue assay / cell count: HepG2; conditions: three generations, mean ± standard deviation of five experiments, read-out: ID50 (the source's name)
[5] = test system: 2.2.15 line; experiment: In vitro cytotoxicity, methylene blue assay / cell count: 2.2.15; conditions: three generations, mean ± standard deviation of five experiments, read-out: ID50 (the source's name)
Method: Cells in logarithmic growth were plated at a density of 5000 cells/mL/well in 24-well plates. Drugs were added to the cells at different dosages and cultures were maintained for a period of three generations. At the end of this time, methylene blue assays were performed and/or cell numbers were directly counted. […] IC50 values were determined by interpolation of the plotted data. Each value shown is the mean± standard deviation of five experiments with each data point done in duplicate.
HepG2 cells originate from hepatocellular carcinoma and the 2.2.15 line is derived from HepG2 cells which were transfected with a copy of the hepatitis B virus genome.

[6] = test system: CEM cells; experiment: In vitro cytotoxicity, methylene blue assay / cell count: CEM; conditions: three generations, mean ± standard deviation of five experiments, read-out: ID50 (the source's name)
[7] = test system: tumor cell lines tested; experiment: In vitro cytotoxicity, statement on all tumor cell lines tested; conditions: all of the tumor cell lines tested

O=c1ccn(C2COC(CO)O2)c(=O)[nH]1 (single isomer, unassigned; (-)) [(−)-OddU]
pIC50 [1]: < 4.52
pIC50 [2]: < 4.52
pIC50 [3]: < 4.52
pIC50 [4]: < 4.52
pIC50 [5]: < 4.52
pIC50 [6]: < 4.52
Cytotoxicity in words [7]: not toxic
